Data taken from US9556217B2, “Amphiphilic compounds” (WISCONSIN ALUMNI RESEARCH FOUNDATION, priority 2012, dated 2017).

Tests used:
[1] = target: T1, cytidine-5′-monophosphate-sialic acid transporter (CMP-Sia) (Mus musculus, UniProt Q61420); assay: CMP-Sia gel filtration integrity; design: species or system murine; settings: detergent at 0.042 wt %; 2 hours at 30° C.
T1 construct: GFP-His (C, cleaved yes); made in house; host or cells: Saccharomyces cerevisiae
T1 sequence (Q61420 1-336): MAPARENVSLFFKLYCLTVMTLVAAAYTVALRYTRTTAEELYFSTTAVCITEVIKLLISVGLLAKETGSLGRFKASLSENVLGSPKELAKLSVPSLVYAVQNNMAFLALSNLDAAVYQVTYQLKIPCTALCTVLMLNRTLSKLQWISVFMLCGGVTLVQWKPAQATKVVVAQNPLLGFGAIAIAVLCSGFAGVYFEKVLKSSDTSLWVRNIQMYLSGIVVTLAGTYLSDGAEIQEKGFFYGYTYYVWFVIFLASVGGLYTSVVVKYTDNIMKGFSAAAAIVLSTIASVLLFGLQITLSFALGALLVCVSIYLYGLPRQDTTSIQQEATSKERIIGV
Method: The promising behavior manifested by GDN in terms of the stability of bR and the R. capsulatus superassembly prompted the examining this amphiphile with another membrane protein, the murine cytidine-5′-monophosphate-sialic acid transporter (CMP-Sia) (Newstead et al., Proc. Natl. Acad. Sci. USA 2007, 104, 13936-13941). The protein was initially extracted from S. cereviseae membranes with 1% DDM and isolated in buffer containing 0.03% DDM. The final purified protein (6 mg/mL) was diluted 1:100 into solutions containing DDM or GDN at 0.042 wt % (which corresponds to CMC+0.033 wt % for DDM and CMC+0.04 wt % for GDN). The DDM- and GDN-solubilized CMP-Sia were analyzed by gel filtration before and after incubation for 2 hours at 30° C. (FIG. 5a, b).
Protein integrity was assessed using the procedure reported by Chae and coworkers (Nat. Methods 2010, 7, 1003-1008) using CMP-Sia instead of SQR.
CMP-Sia and GlpG were expressed as fusion proteins with a C-terminal GFP-His tag in Saccharomyces cerevisiae and Escherichia coli respectively. All steps were carried out at 4° C. Membranes containing CMP-Sia and GlpG were resuspended in PBS, 10 mM imidazole pH 8.0, 150 mM NaCl, 10% glycerol and solubilized in 1% DDM for 1 hour with mild agitation. Supernatant containing DDM-solubilized protein was harvested after ultracentrifugation at 100,000 g for 45 min. […]

[2] = test system: R. capsulatus LHI-RC superassembly; assay: R. capsulatus LHI-RC superassembly stability (A875/A680); design: species or system Rhodobacter capsulatus; settings: CMC+0.04 wt %, RT, 875 nm/680 nm absorbance ratio
Method: Next a more challenging system, the photosynthetic superassembly from Rhodobacter capsulatus (Laible et al., Biochemistry 2003, 42, 1718-1730), was analyzed. This photosynthetic superassembly contains the light harvesting I (LHI) complex and the reaction center (RC) complex. The superassembly contains >30 protein molecules; integrity can be assessed based on the 875 nm/680 nm absorbance ratio (Chae et al., ChemBioChem 2008, 9, 1706-1709). The superassembly was extracted from the native membrane with 1.0 wt % DDM and purified with DDM at its CMC (0.009 wt %). […]
The stability of R. capsulatus superassembly was assessed according to the protocol described by Chae and coworkers (J. Am. Chem. Soc. 2010, 132, 16750-16752).
For the stability assay, DDM-solubilized material was transferred into a new microcentrifuge tube containing Ni-NTA resin (Qiagen, Inc.; Valencia, Calif.; pre-equilibrated and stored in an equal volume of buffer containing 10 mM Tris, pH 7.8, and 100 mM NaCl). After a 1 h incubation at 4° C. for binding, the resins were washed twice with 0.5 mL of binding buffer (a pH 7.8 Tris solution containing DDM at 1×CMC) and eluted three times with 0.20 mL elution buffer aliquots containing 1 M imidazole (otherwise, this buffer was identical to binding buffer; the pH of each solution was readjusted to pH=7.8). […]

Structure (SMILES)	CMP-Sia integrity after incubation (gel filtration) [1] [%]	LHI-RC superassembly stability over 20 days relative to DDM or OG [2]
CCCCCCCCCCCCO[C@@H]1O[C@H](CO)[C@@H](O[C@H]2O[C@H](CO)[C@@H](O)[C@H](O)[C@H]2O)[C@H](O)[C@H]1O [DDM, dodecyl-β-D-maltoside, reference compound]	~50	–
C[C@@H]1CC[C@@]2(OC1)O[C@H]1C[C@H]3[C@@H]4CC=C5C[C@@H](OCCC(CO[C@@H]6OC(CO)[C@@H](O[C@H]7OC(CO)[C@@H](O)C(O)C7O)C(O)C6O)CO[C@@H]6OC(CO)[C@@H](O[C@H]7OC(CO)[C@@H](O)C(O)C7O)C(O)C6O)CC[C@]5(C)[C@H]4CC[C@]3(C)[C@@H]1[C@@H]2C (stereo partly shown) [GDN, glyco-diosgenin]	> 90	substantially more stable
CO[C@@H]1CC[C@@]2(C)[C@H](CC[C@@H]3[C@@H]2CC[C@]2(C)[C@@H]([C@H](C)CCCOCC(C)(CO[C@@H]4OC(CO)C(O[C@@H]5OC(CO)[C@@H](O)[C@H](O)C5O)[C@@H](O)C4O)CO[C@@H]4OC(CO)[C@@H](O[C@H]5OC(CO)[C@@H](O)[C@H](O)C5O)[C@H](O)C4O)CC[C@@H]32)C1 (stereo partly shown) [GLC-2]	–	substantially more stable
